The text below walks through data of paper PMC12445474, “Conservation of heat stress acclimation by the IPK2-type kinases that control the synthesis of the inositol pyrophosphate 4/6-InsP7 in land plants” (PLOS Genetics, 2025).

Data set [1] addresses T1, AtIPK2β (Arabidopsis thaliana, UniProt Q9FLT2).
T1 construct: gene IPK2b; full-length CDS in pET28b, N-terminal His8-MBP-TEV, E. coli BL21 (RIL); tag removed by TEV for ITC, His8-MBP fusion for kinase assays
T1 sequence (Q9FLT2 1-300): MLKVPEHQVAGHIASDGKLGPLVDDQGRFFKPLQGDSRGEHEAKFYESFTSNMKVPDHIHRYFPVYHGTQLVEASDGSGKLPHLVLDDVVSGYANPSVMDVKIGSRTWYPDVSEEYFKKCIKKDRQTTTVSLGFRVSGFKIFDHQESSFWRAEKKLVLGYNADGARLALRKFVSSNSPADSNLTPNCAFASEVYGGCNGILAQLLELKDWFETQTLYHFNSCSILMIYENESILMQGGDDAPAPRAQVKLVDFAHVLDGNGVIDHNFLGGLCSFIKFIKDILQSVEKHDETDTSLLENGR
As to the kind of experiment: isothermal titration calorimetry. It counts as binding.

In data set [2] the target is T2, MpIPMK (Marchantia polymorpha, UniProt A0A2R6WAL0).
T2 construct: gene MARPO_0118s0021; full-length CDS in pET28b, N-terminal His8-MBP fusion, E. coli, Ni-NTA purified in PBS; tag kept
As to the kind of experiment: in vitro kinase assay, PAGE and CE-MS of products. Conditions: 12.5 mM ATP, 10 nmol InsP6, 5 mM MgCl2, 20 mM HEPES pH 7.5, 1 mM DTT, 37 °C, 12 h. The class given is biochemical.

The target in the next data set is T3, AtIPK2α (Arabidopsis thaliana, UniProt Q9LY23).
T3 construct: gene IPK2a; full-length CDS in pET28b, N-terminal His8-MBP-TEV, E. coli BL21 (RIL); tag removed by TEV for ITC, His8-MBP fusion for kinase assays
T3 sequence (Q9LY23 1-286): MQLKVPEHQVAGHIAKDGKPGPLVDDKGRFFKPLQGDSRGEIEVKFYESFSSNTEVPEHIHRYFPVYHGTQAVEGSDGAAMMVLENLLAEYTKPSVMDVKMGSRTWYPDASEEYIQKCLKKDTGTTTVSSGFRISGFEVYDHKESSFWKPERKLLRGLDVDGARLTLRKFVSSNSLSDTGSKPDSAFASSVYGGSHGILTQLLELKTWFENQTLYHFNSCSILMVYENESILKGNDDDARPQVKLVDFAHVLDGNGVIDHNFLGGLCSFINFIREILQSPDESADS
As to the kind of experiment: isothermal titration calorimetry. It counts as binding. Background: ITC needs no label: the signal is the heat of the interaction.

The target in data set [3] is T4, AtHSFA1b (Arabidopsis thaliana, UniProt O81821 1-481). As to the kind of experiment: EMSA; 50-200 nM protein, 250 nM probe; EMSA: 250 nM FAM probe, 15 min on ice (30 min pre-incubation with partner or InsP), 6% native PAGE; binding buffer not stated (proteins purified in PBS pH 7.4). Conditions: protein: recombinant; tags: N-terminal His8-MBP; chain copies: 3; label: 5' FAM on strand 1; 5' overhang 4 nt at both ends, 18 bp duplex. A general note: In EMSA bound probe runs differently from free probe, usually more slowly.
T4 sequence (O81821 whole entry): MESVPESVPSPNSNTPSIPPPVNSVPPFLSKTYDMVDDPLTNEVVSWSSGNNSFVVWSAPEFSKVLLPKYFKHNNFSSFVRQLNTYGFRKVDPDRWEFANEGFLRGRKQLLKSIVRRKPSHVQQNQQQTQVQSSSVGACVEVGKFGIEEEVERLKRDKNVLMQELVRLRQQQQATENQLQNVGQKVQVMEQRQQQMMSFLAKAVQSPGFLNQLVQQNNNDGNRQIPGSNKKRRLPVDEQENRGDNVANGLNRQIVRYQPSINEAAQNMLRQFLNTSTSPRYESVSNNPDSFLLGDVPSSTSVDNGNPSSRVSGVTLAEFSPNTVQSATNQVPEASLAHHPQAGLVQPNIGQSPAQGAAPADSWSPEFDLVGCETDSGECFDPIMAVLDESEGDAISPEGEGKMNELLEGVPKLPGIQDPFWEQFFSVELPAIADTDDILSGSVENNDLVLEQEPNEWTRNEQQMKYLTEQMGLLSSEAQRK

Data set [4] has as its target T4, AtHSFA1b. As to the kind of experiment: EMSA; 25-200 nM protein, 250 nM probe; EMSA: 250 nM FAM probe, 15 min on ice (30 min pre-incubation with partner or InsP), 6% native PAGE; binding buffer not stated (proteins purified in PBS pH 7.4). Conditions: protein: recombinant; tags: N-terminal His8-MBP; chain copies: 3; label: 5' FAM on strand 1; 5' overhang 4 nt at both ends, 26 bp duplex.

For data set [5], the target named is T5, MpIPMK (Marchantia polymorpha (Tak-1), UniProt A0A2R6WAL0 1-319).
T5 sequence: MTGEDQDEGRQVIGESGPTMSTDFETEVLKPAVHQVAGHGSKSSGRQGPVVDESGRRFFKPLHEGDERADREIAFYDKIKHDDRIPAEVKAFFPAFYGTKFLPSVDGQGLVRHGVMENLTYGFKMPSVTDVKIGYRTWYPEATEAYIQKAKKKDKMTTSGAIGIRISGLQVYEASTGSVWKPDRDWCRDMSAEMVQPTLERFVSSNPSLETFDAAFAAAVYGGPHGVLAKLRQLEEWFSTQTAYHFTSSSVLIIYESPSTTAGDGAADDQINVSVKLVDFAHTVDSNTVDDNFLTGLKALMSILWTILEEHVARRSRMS
As to the kind of experiment: EMSA; 50-200 nM protein, 250 nM probe; EMSA: 250 nM FAM probe, 15 min on ice (30 min pre-incubation with partner or InsP), 6% native PAGE; binding buffer not stated (proteins purified in PBS pH 7.4). Conditions: protein: recombinant; tags: N-terminal His8-MBP; label: 5' FAM on strand 1; 5' overhang 4 nt at both ends, 26 bp duplex.

Data set [6] concerns the target T6, AtIPK2β (Arabidopsis thaliana (Col-0), UniProt Q9FLT2 1-300).
T6 sequence: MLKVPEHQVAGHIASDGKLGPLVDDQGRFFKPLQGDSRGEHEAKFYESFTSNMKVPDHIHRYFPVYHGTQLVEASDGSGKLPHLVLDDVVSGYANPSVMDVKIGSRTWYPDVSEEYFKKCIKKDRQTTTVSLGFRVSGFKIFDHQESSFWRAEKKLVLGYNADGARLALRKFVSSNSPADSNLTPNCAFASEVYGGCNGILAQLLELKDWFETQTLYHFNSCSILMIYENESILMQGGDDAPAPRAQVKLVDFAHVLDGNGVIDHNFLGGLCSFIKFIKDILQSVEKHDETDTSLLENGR
The description is as above. Conditions: protein: recombinant; tags: N-terminal His8-MBP-TEV; label: 5' FAM on strand 1; 5' overhang 4 nt at both ends, 26 bp duplex.

The Kd is the free concentration of one partner at which half of the binding sites on the other are occupied at equilibrium, for simple one-to-one binding. Low readings indicate a tighter complex, high ones a looser complex.

In the case of `O=P(O)(O)O[C@H]1[C@H](OP(=O)(O)O)[C@@H](OP(=O)(O)O)[C@H](OP(=O)(O)O)[C@@H](OP(=O)(O)O)[C@H]1OP(=O)(O)O` [InsP6], the Kd is roughly 0.5 µM on AtIPK2β [1] and roughly 2 µM on AtIPK2α. Also, the kinase activity result at MpIPMK [2] is recorded as “demonstrating that MpIPMK phosphorylates InsP6 in vitro”.

`O=P(O)(O)O[C@@H]1[C@H](O)[C@H](O)[C@@H](OP(=O)(O)O)[C@H](OP(=O)(O)O)[C@H]1O` [Ins(1,4,5)P3]: the Kd on AtIPK2β [1] is roughly 6 µM; at AtIPK2α it was roughly 7 µM.

B1: HSE∆ (dsDNA)
DNA 1: CTCGGTCGATCGATGCATGATG
DNA 2: AAACCATCATGCATCGATCGAC
With B1, the binding result with AtHSFA1b [3] is “no binding”.

B2: FAM-HSE (AtHSP18.1 promoter element) (dsDNA)
DNA 1: CTCGGTCGATCGAGAAGCTTCTGCATGATG
DNA 2: AAACCATCATGCAGAAGCTTCTCGATCGAC
In the case of B2, the figures for the binding result with AtHSFA1b [4], with MpIPMK [5] and with AtIPK2β [6] were “binds”, “no binding” and “no binding”, respectively.
